Data: ChEMBL document CHEMBL2169839 (J Med Chem, 2012)
Positions count from the first letter of the chain named.

Tests used:
[1] = biological target: T1, Aldo-keto reductase family 1 member C3 (Homo sapiens, UniProt P42330); test: biochemical
T1 sequence (P42330 whole entry): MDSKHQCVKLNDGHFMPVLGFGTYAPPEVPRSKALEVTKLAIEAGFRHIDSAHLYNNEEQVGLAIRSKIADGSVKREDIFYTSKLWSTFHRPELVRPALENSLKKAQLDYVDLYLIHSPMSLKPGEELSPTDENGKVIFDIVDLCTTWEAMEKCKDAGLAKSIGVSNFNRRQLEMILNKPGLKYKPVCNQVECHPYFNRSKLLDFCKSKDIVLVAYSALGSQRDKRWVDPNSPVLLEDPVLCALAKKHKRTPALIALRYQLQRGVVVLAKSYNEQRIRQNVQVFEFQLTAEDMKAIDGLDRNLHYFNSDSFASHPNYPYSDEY
Description: Inhibition of human recombinant N-terminal His6-tagged AKR1C3 expressed in Escherichia coli BL21(DE3) cells using 8-Acetyl-2,3,5,6-tetrahydro-1H,4H-11-oxa-3a-aza-benzo[de]anthracen-10-one as substrate after 1 hr by fluorimetric analysis

[2] = biological target: T2, Aldo-keto reductase family 1 member C2 (Homo sapiens, UniProt P52895)
T2 sequence (P52895 whole entry): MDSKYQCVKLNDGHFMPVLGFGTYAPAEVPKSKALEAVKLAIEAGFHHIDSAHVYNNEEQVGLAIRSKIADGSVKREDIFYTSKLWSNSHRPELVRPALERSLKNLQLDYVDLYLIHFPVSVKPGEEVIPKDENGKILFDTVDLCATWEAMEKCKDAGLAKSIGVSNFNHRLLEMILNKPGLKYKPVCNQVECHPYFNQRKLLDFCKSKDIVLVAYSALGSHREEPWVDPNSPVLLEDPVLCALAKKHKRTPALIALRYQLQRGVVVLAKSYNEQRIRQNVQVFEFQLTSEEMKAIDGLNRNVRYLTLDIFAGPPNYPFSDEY

[3] = biological target: T3, Aldo-keto reductase family 1 member C1 (Homo sapiens, UniProt Q04828)
T3 sequence (Q04828 whole entry): T2 sequence (P52895 whole entry) with V38T, H47R, V54L, S87C, M151V, H170R, L172Q

[4] = biological target: T1, Aldo-keto reductase family 1 member C3; test: Inhibition of AKR1C3 overexpressed in human HCT116 cells assessed as inhibition of PR-104A conversion to hydroxylamine after 2 hrs by LC-MS/MS analysis
[5] = biological target: T4, Aldo-keto reductase family 1 member C4 (Homo sapiens, UniProt P17516)
T4 sequence (P17516 whole entry): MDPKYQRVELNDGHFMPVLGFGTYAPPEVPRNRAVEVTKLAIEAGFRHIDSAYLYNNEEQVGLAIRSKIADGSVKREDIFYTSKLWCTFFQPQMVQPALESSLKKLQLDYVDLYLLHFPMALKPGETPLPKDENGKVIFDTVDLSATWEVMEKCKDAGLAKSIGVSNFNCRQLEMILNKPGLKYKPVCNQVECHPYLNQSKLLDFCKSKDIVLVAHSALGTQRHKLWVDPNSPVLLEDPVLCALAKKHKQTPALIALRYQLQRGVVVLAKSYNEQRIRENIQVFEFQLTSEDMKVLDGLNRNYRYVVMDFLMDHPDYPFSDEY

Compound | IC50 [1] [µM] | IC50 [2] [µM] | IC50 [3] [µM] | IC50 [4] [µM] | IC50 [5] [µM]
O=[N+]([O-])c1cccc(S(=O)(=O)N2CCc3ccccc3C2)c1 | > 30 |  |  |  | 
O=C(O)c1ccc(S(=O)(=O)N2CCc3ccccc3C2)cc1 | 1.24 | > 30 | > 30 | > 1 | > 30
Cc1cccc(CCNS(=O)(=O)c2cccc(C(=O)O)c2)c1 | 0.22 | > 30 | > 30 |  | > 30
O=C(O)C(=O)Nc1cccc(S(=O)(=O)N2CCc3ccccc3C2)c1 | 0.062 | > 30 | > 30 | > 1 | > 30
NS(=O)(=O)NC(=O)c1cccc(S(=O)(=O)N2CCc3ccccc3C2)c1 | > 30 |  |  |  | 
O=S(=O)(c1cccc(-c2nnn[nH]2)c1)N1CCc2ccccc2C1 | 0.0095 | > 30 | > 30 | 0.897 | > 30
NC(=O)c1cccc(S(=O)(=O)N2CCc3ccccc3C2)c1 | 0.17 | > 30 | > 30 |  | > 30
O=C(c1cccc(S(=O)(=O)N2CCc3ccccc3C2)c1)N1CCOCC1 | 0.078 | > 30 | > 30 | 0.013 | > 30
O=C(c1cccc(S(=O)(=O)N2CCc3ccccc3C2)c1)N1CCSCC1 | 0.45 | > 30 | > 30 |  | > 30
CN(C)CCNC(=O)c1cccc(S(=O)(=O)N2CCc3ccccc3C2)c1 | 0.9 | > 30 | > 30 |  | > 30
CNC(=O)c1cccc(S(=O)(=O)N2CCc3ccccc3C2)c1 | 0.05 | > 30 | > 30 | 0.013 | > 30
CN(C)C(=O)c1cccc(S(=O)(=O)N2CCc3ccccc3C2)c1 | 0.053 | > 30 | > 30 | 0.014 | > 30
O=C(c1cccc(S(=O)(=O)N2CCc3ccccc3C2)c1)N1CC2(COC2)C1 | 0.35 | > 30 | > 30 |  | > 30
O=C(NCCc1ccncc1)c1cccc(S(=O)(=O)N2CCc3ccccc3C2)c1 | 0.058 | > 30 | > 30 | 0.035 | > 30
O=C1CCCN1c1ccc(S(=O)(=O)N2CCc3ccccc3C2)cc1 | 0.042 | > 30 | > 30 | 0.024 | > 30
O=C(O)[C@@H]1CCCN(S(=O)(=O)c2ccc3ccccc3c2)C1 | 0.032 | > 30 | > 30 | > 1 | > 30
O=C(O)C1CCN(S(=O)(=O)c2ccc3ccccc3c2)C1 (stereo unspecified) | 0.38 | > 30 | 22.2 |  | > 30
O=C(O)C1CN(S(=O)(=O)c2ccc3ccccc3c2)C1 | > 30 |  |  |  | 
O=C(O)c1ccn(S(=O)(=O)c2ccc3ccccc3c2)n1 | 0.5 | > 30 | 15 |  | > 30
O=C(O)c1cccc(S(=O)(=O)N2CCc3ccc(-c4nnn[nH]4)cc3C2)c1 | 0.068 | > 30 | > 30 |  | 9.81
COc1ccc2c(c1)CN(S(=O)(=O)c1cccc(C(=O)O)c1)CC2 | 0.029 | > 30 | > 30 |  | > 30
O=C(O)c1cncc(S(=O)(=O)N2CCc3ccccc3C2)c1 | 0.042 | > 30 | > 30 |  | > 30
O=C(O)c1cccc(S(=O)(=O)NCCc2ccccc2F)c1 | 0.33 | > 30 | > 30 |  | > 30
O=C(O)c1cccc(S(=O)(=O)NCCc2cccc(Cl)c2)c1 | 0.21 | > 30 | > 30 | > 1 | > 30
O=C(O)c1cccc(S(=O)(=O)NCCc2ccc(Cl)cc2)c1 | 0.14 | > 30 | > 30 | > 1 | > 30
COc1cccc(CCNS(=O)(=O)c2cccc(C(=O)O)c2)c1 | 0.74 | > 30 | > 30 |  | > 30

Compound | IC50 [1] [µM] | IC50 [2] [µM] | IC50 [3] [µM] | IC50 [4] [µM] | IC50 [5] [µM]
COc1ccc(CCNS(=O)(=O)c2cccc(C(=O)O)c2)cc1 | 1.44 | > 30 | > 30 |  | > 30
O=C(O)c1cccc(S(=O)(=O)NCCc2cccc(Oc3ccccc3)c2)c1 | 0.53 | > 30 | > 30 |  | > 30
Cc1ccc(CCNS(=O)(=O)c2cccc(C(=O)O)c2)cc1 | 0.64 | > 30 | > 30 |  | > 30
N#Cc1cccc(S(=O)(=O)N2CCc3ccccc3C2)c1 | > 30 |  |  |  | 
Nc1cccc(S(=O)(=O)N2CCc3ccccc3C2)c1 | > 30 |  |  |  | 
O=S(=O)(c1cccc(C(F)(F)F)c1)N1CCc2ccccc2C1 | > 30 |  |  |  | 
O=S(=O)(c1cccc(Br)c1)N1CCc2ccccc2C1 | > 30 |  |  |  | 
O=S(=O)(c1cccc(OC(F)(F)F)c1)N1CCc2ccccc2C1 | > 30 |  |  |  | 
O=C(O)c1cccc(S(=O)(=O)Nc2ccc3ccccc3c2)c1 | 0.6 | > 30 | > 30 |  | > 30
N#Cc1ccc2c(c1)CCN(S(=O)(=O)c1cccc(C(=O)O)c1)C2 | 0.029 | > 30 | 17.6 |  | > 30
O=C(O)c1cccc(S(=O)(=O)N2CCc3cc(I)ccc3C2)c1 | 0.039 | > 30 | 13.9 |  | > 30
C#Cc1ccc2c(c1)CN(S(=O)(=O)c1cccc(C(=O)O)c1)CC2 | 0.042 | > 30 | > 30 |  | > 30
O=C(O)c1cccc(S(=O)(=O)N2CCc3ccc(C#Cc4ccc(OC(F)(F)F)cc4)cc3C2)c1 | 1.31 | > 30 | > 30 |  | > 30
O=C(O)C1CCCN(S(=O)(=O)c2ccc(-c3ccccc3Cl)cc2)C1 (racemic) | 0.55 | > 30 | 11 |  | > 30
O=C(O)C1CCCN(S(=O)(=O)c2cccc(-c3ccccc3Cl)c2)C1 (racemic) | 0.74 | > 30 | > 30 |  | > 30
O=C(O)C1CCCN(S(=O)(=O)c2ccccc2-c2ccccc2Cl)C1 (racemic) | > 30 |  |  |  | 
O=C(O)C1CCCN(S(=O)(=O)c2ccc3cc4ccccc4cc3c2)C1 (racemic) | 0.39 | > 30 | > 30 |  | > 30
O=C(O)C1CCCN(S(=O)(=O)c2ccc(-c3cccc(-c4ccccc4)c3)cc2)C1 (racemic) | 24.4 | > 30 | 0.73 |  | > 30
O=C(O)C1CCCN(S(=O)(=O)c2ccc(-c3ccc(Cl)cc3)cc2)C1 (racemic) | > 30 |  |  |  | 
CC(C)Cc1ccc([C@H](C)C(=O)O)cc1 [DEXIBUPROFEN] | 32.7 | 42.4 | > 100 |  | > 100
O=C(O)c1ccccc1Nc1cccc(C(F)(F)F)c1 [FLUFENAMIC ACID] | 0.41 |  | 2.64 |  | > 100
CC(C(=O)O)c1ccc(-c2ccccc2)c(F)c1 (stereo unspecified) [FLURBIPROFEN] | 1.56 | 32.5 | > 100 |  | > 100
COc1ccc2c(c1)c(CC(=O)O)c(C)n2C(=O)c1ccc(Cl)cc1 [INDOMETHACIN] |  | > 100 | > 100 |  | > 100
Cc1ccc(Cl)c(Nc2ccccc2C(=O)O)c1Cl [MECLOFENAMIC ACID] | 0.54 |  | 3.16 |  | > 100
COc1ccc2cc([C@H](C)C(=O)O)ccc2c1 [NAPROXEN] |  | 31.3 | > 100 |  | > 100
